Experimental data as given in US10517826B2, “Anthostema senegalense-based composition for use as an anti-AIDS drug” (LABORATOIRE MICHEL IDERNE, priority 2014, dated 2019).
Converted amounts (≈) assume the structure as drawn. Like-named read-outs stand apart in the source and are kept apart here.

Experiments:
[1] = system: type 1 HIV virus (strain IIIB); test: in vitro anti-HIV test, median inhibitory concentration on HIV-1; assay type: cell-based; conditions: HIV-1 Strain IIIB
Experimental: (§1) An apolar extract and a polar extract of Anthostema senegalense were prepared by extraction with dichloromethane and methanol, respectively, from dried stem bark of Anthostema senegalense.
(§2) The efficacy of these extracts against the HIV virus was tested in vitro by measuring the median inhibitory concentration (IC50) of these substances on the type 1 HIV virus (strain IIIB) and on the type 2 virus (strain ROD). Their selectivity index was also measured in each case.
(§3) In order to serve as a control, three known antiretroviral molecules used in the treatment of the infection with HIV: nevirapine, dideoxycitidine and dideoxyinosine were also tested under the same conditions for comparison.

[2] = system: type 2 virus (strain ROD); test: in vitro anti-HIV test, median inhibitory concentration on HIV-2; assay type: cell-based; conditions: HIV-2 ROD Strain
Experimental: as §1, §2, §3

SMILES	IC50 [1] [µg/mL]	IC50 [2] [µg/mL]	IC50 ([1]; Human immunodeficiency virus 1, read-out: IC50) [µg/mL]	IC50 ([2]; Human immunodeficiency virus 2, read-out: IC50) [µg/mL]
Nc1ccn([C@H]2CC[C@@H](CO)O2)c(=O)n1 [Dideoxycitidine, dideoxycitidine]	0.29 (≈ 1.37 µM)	0.30 (≈ 1.42 µM)	–	–
O=c1[nH]cnc2c1ncn2[C@H]1CC[C@@H](CO)O1 [Dideoxyinosine, dideoxyinosine]	2.89 (≈ 12.2 µM)	4.59 (≈ 19.4 µM)	–	–
Cc1ccnc2c1NC(=O)c1cccnc1N2C1CC1 [Nevirapine, nevirapine]	–	–	0.047 (≈ 0.176 µM)	> 4
